According to patent US5843889A, “Glycopeptide antibiotic derivatives” (Eli Lilly and Company, priority 1997, dated 1998):
≈ marks a conversion by molar mass, not a printed value.

Legend:
Experiment in all cases: MIC, standard broth micro-dilution assay
Format in all cases: cell-based
Entercoccus faecalis 276 = test system: Entercoccus faecalis 276
Experimental: (§1) The formula I compounds have in vitro and in vivo activity against Gram-positive pathogenic bacteria. The MIC's were determined using a standard broth micro-dilution assay.

[1] = test system: Entercoccus gallinarum 245
Experimental: as §1

[2] = test system: Entercoccus faecalis 2041
Experimental: as §1

Compound | MIC (Entercoccus faecalis 276) [µg/mL] | MIC [1] [µg/mL] | MIC [2] [µg/mL]
CNC(CC(C)C)C(=O)NC1C(=O)NC(CC(N)=O)C(=O)NC2C(=O)NC3C(=O)NC(C(=O)NC(C(=O)O)c4cc(O)cc(O)c4-c4cc3ccc4O)C(OC3CC(C)(N)C(O)C(C)O3)c3ccc(c(Cl)c3)Oc3cc2cc(c3OC2OC(CO)C(O)C(O)C2OC2CC(C)(NCc3ccc(OCCCC#N)cc3)C(O)C(C)O2)Oc2ccc(cc2Cl)C1O (stereo not shown) [Compound 55, 4-[3-cyanopropoxy]benzyl] | 0.5 (≈ 0.283 µM) | – | –
CNC(CC(C)C)C(=O)NC1C(=O)NC(CC(N)=O)C(=O)NC2C(=O)NC3C(=O)NC(C(=O)NC(C(=O)O)c4cc(O)cc(O)c4-c4cc3ccc4O)C(OC3CC(C)(N)C(O)C(C)O3)c3ccc(c(Cl)c3)Oc3cc2cc(c3OC2OC(CO)C(O)C(O)C2OC2CC(C)(NCc3ccnc4ccccc34)C(O)C(C)O2)Oc2ccc(cc2Cl)C1O (stereo not shown) [Compound 27, 4-quinolylmethyl] | 0.5 (≈ 0.288 µM) | 0.5 (≈ 0.288 µM) | –
CNC(CC(C)C)C(=O)NC1C(=O)NC(CC(N)=O)C(=O)NC2C(=O)NC3C(=O)NC(C(=O)NC(C(=O)O)c4cc(O)cc(O)c4-c4cc3ccc4O)C(OC3CC(C)(N)C(O)C(C)O3)c3ccc(c(Cl)c3)Oc3cc2cc(c3OC2OC(CO)C(O)C(O)C2OC2CC(C)(NCc3ccc(N4CCCCC4C)cc3)C(O)C(C)O2)Oc2ccc(cc2Cl)C1O (stereo not shown) [Compound 135, 4-[2-methyl-1-piperidino]benzyl] | 0.5 (≈ 0.281 µM) | 2 (≈ 1.12 µM) | –
CNC(CC(C)C)C(=O)NC1C(=O)NC(CC(N)=O)C(=O)NC2C(=O)NC3C(=O)NC(C(=O)NC(C(=O)O)c4cc(O)cc(O)c4-c4cc3ccc4O)C(OC3CC(C)(N)C(O)C(C)O3)c3ccc(c(Cl)c3)Oc3cc2cc(c3OC2OC(CO)C(O)C(O)C2OC2CC(C)(NCc3ccc(-c4ccc(OC)c(OC)c4)cc3)C(O)C(C)O2)Oc2ccc(cc2Cl)C1O (stereo not shown) [Compound 215, 4-[3,4-dimethoxyphenyl]benzyl] | 2 (≈ 1.1 µM) | – | –
CC#CCCCCCCCCCCOc1ccc(CNC2(C)CC(OC3C(Oc4c5cc6cc4Oc4ccc(cc4Cl)C(OC4CC(C)(N)C(O)C(C)O4)C4NC(=O)C(NC(=O)C6NC(=O)C(CC(N)=O)NC(=O)C(NC(=O)C(CC(C)C)NC)C(O)c6ccc(c(Cl)c6)O5)c5ccc(O)c(c5)-c5c(O)cc(O)cc5C(C(=O)O)NC4=O)OC(CO)C(O)C3O)OC(C)C2O)cc1 (stereo not shown) [Compound 233, 4-[11-tridecynyloxy]benzyl] | 8 (≈ 4.26 µM) | – | –
CNC(CC(C)C)C(=O)NC1C(=O)NC(CC(N)=O)C(=O)NC2C(=O)NC3C(=O)NC(C(=O)NC(C(=O)O)c4cc(O)cc(O)c4-c4cc3ccc4O)C(OC3CC(C)(N)C(O)C(C)O3)c3ccc(c(Cl)c3)Oc3cc2cc(c3OC2OC(CO)C(O)C(O)C2OC2CC(C)(NCc3ccc(-c4ccc(C(F)(F)F)cc4)cc3)C(O)C(C)O2)Oc2ccc(cc2Cl)C1O (stereo not shown) [Compound 216, 4-[4-trifluromethylphenyl]benzyl] | 0.5 (≈ 0.274 µM) | – | –
CNC(CC(C)C)C(=O)NC1C(=O)NC(CC(N)=O)C(=O)NC2C(=O)NC3C(=O)NC(C(=O)NC(C(=O)O)c4cc(O)cc(O)c4-c4cc3ccc4O)C(OC3CC(C)(N)C(O)C(C)O3)c3ccc(c(Cl)c3)Oc3cc2cc(c3OC2OC(CO)C(O)C(O)C2OC2CC(C)(NCc3ccc(C(F)(F)F)cc3)C(O)C(C)O2)Oc2ccc(cc2Cl)C1O (stereo not shown) [Compound 37, 4-trifluoromethylbenzyl] | 1 (≈ 0.571 µM) | – | –
CNC(CC(C)C)C(=O)NC1C(=O)NC(CC(N)=O)C(=O)NC2C(=O)NC3C(=O)NC(C(=O)NC(C(=O)O)c4cc(O)cc(O)c4-c4cc3ccc4O)C(OC3CC(C)(N)C(O)C(C)O3)c3ccc(c(Cl)c3)Oc3cc2cc(c3OC2OC(CO)C(O)C(O)C2OC2CC(C)(NCCCCc3ccc(OC)cc3)C(O)C(C)O2)Oc2ccc(cc2Cl)C1O (stereo not shown) [Compound 172, 4-[4-methoxyphenyl]butyl] | – | 2 (≈ 1.14 µM) | ≤ 0.06
CNC(CC(C)C)C(=O)NC1C(=O)NC(CC(N)=O)C(=O)NC2C(=O)NC3C(=O)NC(C(=O)NC(C(=O)O)c4cc(O)cc(O)c4-c4cc3ccc4O)C(OC3CC(C)(N)C(O)C(C)O3)c3ccc(c(Cl)c3)Oc3cc2cc(c3OC2OC(CO)C(O)C(O)C2OC2CC(C)(NCCCCCCc3ccccc3)C(O)C(C)O2)Oc2ccc(cc2Cl)C1O (stereo not shown) [Compound 196, 6-phenylhexyl] | – | 1 (≈ 0.571 µM) | ≤ 0.06
CNC(CC(C)C)C(=O)NC1C(=O)NC(CC(N)=O)C(=O)NC2C(=O)NC3C(=O)NC(C(=O)NC(C(=O)O)c4cc(O)cc(O)c4-c4cc3ccc4O)C(OC3CC(C)(N)C(O)C(C)O3)c3ccc(c(Cl)c3)Oc3cc2cc(c3OC2OC(CO)C(O)C(O)C2OC2CC(C)(NCc3ccc4c(c3)CCc3ccccc3-4)C(O)C(C)O2)Oc2ccc(cc2Cl)C1O (stereo not shown) [Compound 220] | – | 0.5 (≈ 0.28 µM) | ≤ 0.06
CCCCCC1CCC(c2ccc(CNC3(C)CC(OC4C(Oc5c6cc7cc5Oc5ccc(cc5Cl)C(OC5CC(C)(N)C(O)C(C)O5)C5NC(=O)C(NC(=O)C7NC(=O)C(CC(N)=O)NC(=O)C(NC(=O)C(CC(C)C)NC)C(O)c7ccc(c(Cl)c7)O6)c6ccc(O)c(c6)-c6c(O)cc(O)cc6C(C(=O)O)NC5=O)OC(CO)C(O)C4O)OC(C)C3O)cc2)CC1 (stereo not shown) [Compound 34, 4-[4-pentylcyclohexyl]benzyl] | – | 4 (≈ 2.18 µM) | 8 (≈ 4.36 µM)
CNC(CC(C)C)C(=O)NC1C(=O)NC(CC(N)=O)C(=O)NC2C(=O)NC3C(=O)NC(C(=O)NC(C(=O)O)c4cc(O)cc(O)c4-c4cc3ccc4O)C(OC3CC(C)(N)C(O)C(C)O3)c3ccc(c(Cl)c3)Oc3cc2cc(c3OC2OC(CO)C(O)C(O)C2OC2CC(C)(NCc3c(OC)ccc4ccccc34)C(O)C(C)O2)Oc2ccc(cc2Cl)C1O (stereo not shown) [Compound 9, 2-methoxy-1-naphthylmethyl] | 0.26 (≈ 0.148 µM) | – | –
CNC(CC(C)C)C(=O)NC1C(=O)NC(CC(N)=O)C(=O)NC2C(=O)NC3C(=O)NC(C(=O)NC(C(=O)O)c4cc(O)cc(O)c4-c4cc3ccc4O)C(OC3CC(C)(N)C(O)C(C)O3)c3ccc(c(Cl)c3)Oc3cc2cc(c3OC2OC(CO)C(O)C(O)C2OC2CC(C)(NCc3cncc(-c4ccccc4)c3)C(O)C(C)O2)Oc2ccc(cc2Cl)C1O (stereo not shown) [Compound 101, 3-[5-phenyl]pyridinylmethyl] | – | 8 (≈ 4.55 µM) | ≤ 0.06
CNC(CC(C)C)C(=O)NC1C(=O)NC(CC(N)=O)C(=O)NC2C(=O)NC3C(=O)NC(C(=O)NC(C(=O)O)c4cc(O)cc(O)c4-c4cc3ccc4O)C(OC3CC(C)(N)C(O)C(C)O3)c3ccc(c(Cl)c3)Oc3cc2cc(c3OC2OC(CO)C(O)C(O)C2OC2CC(C)(NCc3ccncc3)C(O)C(C)O2)Oc2ccc(cc2Cl)C1O (stereo not shown) [Compound 26, 4-pyridylmethyl] | ≤ 0.06 | – | –
CNC(CC(C)C)C(=O)NC1C(=O)NC(CC(N)=O)C(=O)NC2C(=O)NC3C(=O)NC(C(=O)NC(C(=O)O)c4cc(O)cc(O)c4-c4cc3ccc4O)C(OC3CC(C)(N)C(O)C(C)O3)c3ccc(c(Cl)c3)Oc3cc2cc(c3OC2OC(CO)C(O)C(O)C2OC2CC(C)(NCc3ccc(OCc4ccc([N+](=O)[O-])cc4)cc3)C(O)C(C)O2)Oc2ccc(cc2Cl)C1O (stereo not shown) [Compound 131, 4-[4-nitrobenzyloxy]benzyl] | – | 2 (≈ 1.09 µM) | ≤ 0.06
CN[C@H](CC(C)C)C(=O)N[C@H]1C(=O)N[C@@H](CC(N)=O)C(=O)N[C@H]2C(=O)N[C@H]3C(=O)N[C@H](C(=O)N[C@H](C(=O)O)c4cc(O)cc(O)c4-c4cc3ccc4O)[C@H](O[C@H]3C[C@](C)(N)[C@@H](O)[C@H](C)O3)c3ccc(c(Cl)c3)Oc3cc2cc(c3O[C@@H]2O[C@H](CO)[C@@H](O)[C@H](O)[C@H]2O[C@H]2C[C@](C)(NCc3ccc(Oc4ccc(Cl)cc4)c([N+](=O)[O-])c3)[C@@H](O)[C@H](C)O2)Oc2ccc(cc2Cl)[C@H]1O [Compound 94, 4-[4-chlorophenoxy]-3-nitrobenzyl] | – | 2 (≈ 1.08 µM) | ≤ 0.06
